Measured values reported in ChEMBL document CHEMBL1201862, “PubChem BioAssay data set” (2004).
Active and inactive are the calls of the source.

Experiments:
[1] = HEp-2 cell cytotoxicity, dose response, cytotoxicity control for RSV inhibitor project, HTS (AID 2410); type: functional; conditions: human respiratory syncytial virus
[2] = Luminescence Cell-Based Dose Retest to Confirm Inhibitors of Cancer Stem Cells. [Related pubchem assays (depositor defined):AID2717, AID2721]; type: functional; conditions: Homo sapiens
Cytochrome P450 2D6 = Cytochrome P450 2D6 (Homo sapiens, UniProt P10635);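 also: CYP2D6 member of a cytochrome P450 panel assay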
Sequence of Cytochrome P450 2D6 (P10635 whole entry): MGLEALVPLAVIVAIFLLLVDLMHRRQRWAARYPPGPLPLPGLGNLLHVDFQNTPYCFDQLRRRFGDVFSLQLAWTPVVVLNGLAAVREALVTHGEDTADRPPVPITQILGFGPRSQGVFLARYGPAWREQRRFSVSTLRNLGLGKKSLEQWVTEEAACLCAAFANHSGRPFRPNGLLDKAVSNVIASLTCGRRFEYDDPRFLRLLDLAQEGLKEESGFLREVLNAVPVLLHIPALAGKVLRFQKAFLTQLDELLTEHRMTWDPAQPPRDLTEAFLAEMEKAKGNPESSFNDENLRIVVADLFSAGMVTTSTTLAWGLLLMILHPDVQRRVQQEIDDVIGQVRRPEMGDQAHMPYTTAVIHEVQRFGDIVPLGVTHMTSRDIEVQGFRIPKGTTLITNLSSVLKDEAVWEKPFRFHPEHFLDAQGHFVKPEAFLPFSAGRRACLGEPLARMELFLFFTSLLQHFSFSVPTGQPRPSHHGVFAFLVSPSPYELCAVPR

Cytochrome P450 2C9 = Cytochrome P450 2C9 (Homo sapiens, UniProt P11712)
Sequence of Cytochrome P450 2C9 (P11712 whole entry): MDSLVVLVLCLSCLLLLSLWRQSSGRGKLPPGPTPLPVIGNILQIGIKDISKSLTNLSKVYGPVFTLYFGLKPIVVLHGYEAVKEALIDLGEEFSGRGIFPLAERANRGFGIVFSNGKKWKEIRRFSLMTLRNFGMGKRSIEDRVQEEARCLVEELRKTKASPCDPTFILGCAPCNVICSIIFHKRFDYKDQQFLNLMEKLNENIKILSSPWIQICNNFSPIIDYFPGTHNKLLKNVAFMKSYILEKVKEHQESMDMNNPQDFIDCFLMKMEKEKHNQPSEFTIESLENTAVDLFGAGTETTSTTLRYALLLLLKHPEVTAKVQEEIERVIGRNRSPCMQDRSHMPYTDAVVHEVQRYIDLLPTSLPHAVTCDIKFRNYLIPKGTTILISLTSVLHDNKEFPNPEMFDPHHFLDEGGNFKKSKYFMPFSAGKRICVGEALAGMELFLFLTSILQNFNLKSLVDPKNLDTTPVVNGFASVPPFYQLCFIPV

[3] = Luminescence Cell-Based Dose Confirmation HTS to Identify Activators of 5'UTR Stem-Loop Driven Alpha-Synuclein mRNA Translation in H4 Neuroglioblastoma Cells. [Related pubchem assays: 1829 (Project Summary), 1814 (Primary HTS)]; type: functional
[4] = Luminescence Cell-Based Dose Response HTS to Identify Activators of Luciferase Translation or Activity in H4 […] Cells. [Related pubchem assays: 1829 (Project Summary), 1814 (Primary HTS)]; type: functional
H4 = assay: Luminescence Cell-Based Dose Response HTS to Identify Activators of 5'UTR Stem-Loop Driven Prion Protein mRNA Translation in H4 Neuroglioblastoma Cells. [Related pubchem assays: 1829 (Project Summary), 1814 (Primary HTS)]; type: functional; conditions: Homo sapiens
[5] = system: Streptococcus sp. 'group A'; assay: growth inhibition of control SK(-) GAS strain, dose response, counter-screen for streptokinase expression inhibitor project, luminescence, kanamycin, BacTiterGlo, confirmation (AID 1900); type: functional, organism-based
Streptokinase A = target: T1, Streptokinase A (Streptococcus pyogenes serotype M1, UniProt P10520); assay: S. pyogenes streptokinase expression inhibitors, potency, dose response, plasminogen activation absorbance, OD405 (AID 1914); type: functional, Streptococcus pyogenes M1 GAS;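 also: secreted streptokinase activity via plasminogen activation per viability signal from cell pellet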
T1 sequence (P10520 whole entry): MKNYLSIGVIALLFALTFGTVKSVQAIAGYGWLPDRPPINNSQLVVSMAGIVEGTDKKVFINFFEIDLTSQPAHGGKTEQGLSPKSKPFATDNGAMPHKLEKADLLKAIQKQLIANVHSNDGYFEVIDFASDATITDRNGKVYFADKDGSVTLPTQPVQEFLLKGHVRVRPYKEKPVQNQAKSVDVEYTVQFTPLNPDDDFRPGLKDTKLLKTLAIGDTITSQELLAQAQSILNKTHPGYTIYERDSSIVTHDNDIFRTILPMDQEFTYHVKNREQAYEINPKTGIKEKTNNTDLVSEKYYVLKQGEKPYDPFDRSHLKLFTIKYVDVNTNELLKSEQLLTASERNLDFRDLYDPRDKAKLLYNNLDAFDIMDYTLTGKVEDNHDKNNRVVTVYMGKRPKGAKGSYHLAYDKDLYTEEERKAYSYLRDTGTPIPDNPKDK

Streptococcus = assay: Group A Streptococcus viability loss, dose response, counter-screen for streptokinase expression inhibitor project, luminescence, BacTiterGlo (AID 1915); type: functional, organism-based;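 also: potency for reduction of bacterial viability or growth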
Cytochrome P450 1A2 = target: T2, Cytochrome P450 1A2 (Homo sapiens, UniProt P05177);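 also: PubChem cytochrome P450 panel assay, CYP1A2 panel member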
T2 sequence (P05177 whole entry): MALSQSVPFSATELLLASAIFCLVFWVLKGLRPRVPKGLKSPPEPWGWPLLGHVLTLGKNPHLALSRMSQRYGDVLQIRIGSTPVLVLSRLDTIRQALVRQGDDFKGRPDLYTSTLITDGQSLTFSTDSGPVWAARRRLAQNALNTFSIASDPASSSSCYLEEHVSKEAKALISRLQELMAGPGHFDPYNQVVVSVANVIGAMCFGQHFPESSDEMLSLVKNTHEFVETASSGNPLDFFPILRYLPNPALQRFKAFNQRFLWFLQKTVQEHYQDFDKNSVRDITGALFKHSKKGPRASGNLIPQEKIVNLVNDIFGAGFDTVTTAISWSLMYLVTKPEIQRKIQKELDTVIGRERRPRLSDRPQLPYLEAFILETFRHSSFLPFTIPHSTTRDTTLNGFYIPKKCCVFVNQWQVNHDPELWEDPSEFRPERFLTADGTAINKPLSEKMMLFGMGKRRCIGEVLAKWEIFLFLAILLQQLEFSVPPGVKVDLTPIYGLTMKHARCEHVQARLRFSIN

Cytochrome P450 3A4 = Cytochrome P450 3A4 (Homo sapiens, UniProt P08684);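 also: CYP3A4 tested as one member of a cytochrome P450 panel screen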
Sequence of Cytochrome P450 3A4 (P08684 whole entry): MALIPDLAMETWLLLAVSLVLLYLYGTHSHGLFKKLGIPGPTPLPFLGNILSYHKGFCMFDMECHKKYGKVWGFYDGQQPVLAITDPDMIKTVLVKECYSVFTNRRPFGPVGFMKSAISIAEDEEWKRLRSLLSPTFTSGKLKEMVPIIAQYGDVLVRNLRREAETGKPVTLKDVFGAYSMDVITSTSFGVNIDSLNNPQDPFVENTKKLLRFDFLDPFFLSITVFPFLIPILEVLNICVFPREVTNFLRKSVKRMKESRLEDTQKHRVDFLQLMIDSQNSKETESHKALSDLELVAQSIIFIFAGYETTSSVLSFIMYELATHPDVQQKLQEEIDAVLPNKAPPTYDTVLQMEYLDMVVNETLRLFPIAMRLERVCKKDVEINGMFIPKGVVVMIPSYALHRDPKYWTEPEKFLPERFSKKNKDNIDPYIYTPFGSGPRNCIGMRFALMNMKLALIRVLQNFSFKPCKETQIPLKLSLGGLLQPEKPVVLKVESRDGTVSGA

[6] = growth suppression of PTEN-null colon cells, dose response, cell-based, HCT116 PTEN knockout (AID 1047); type: functional;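 also: HCT116 colon tumor cells with PTEN knocked out; cells exposed to compound for 60 hours before readout; potency for loss of cell viability measured by luminescence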
[7] = growth suppression of beta-catenin-knockout colon cells, dose response, cell-based, HCT116, human colon tumor (AID 1045); type: functional;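 also: HCT116 colon tumor cells with beta catenin knocked out; cells exposed to compound for 60 hours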
[8] = target: T3, Replicative DNA helicase DnaB (Mycobacterium tuberculosis, UniProt P9WMR3); assay: DnaB intein splicing inhibitors, dose response, biochemical, cell-free fluorescence (AID 449749); type: functional
T3 sequence (P9WMR3 whole entry): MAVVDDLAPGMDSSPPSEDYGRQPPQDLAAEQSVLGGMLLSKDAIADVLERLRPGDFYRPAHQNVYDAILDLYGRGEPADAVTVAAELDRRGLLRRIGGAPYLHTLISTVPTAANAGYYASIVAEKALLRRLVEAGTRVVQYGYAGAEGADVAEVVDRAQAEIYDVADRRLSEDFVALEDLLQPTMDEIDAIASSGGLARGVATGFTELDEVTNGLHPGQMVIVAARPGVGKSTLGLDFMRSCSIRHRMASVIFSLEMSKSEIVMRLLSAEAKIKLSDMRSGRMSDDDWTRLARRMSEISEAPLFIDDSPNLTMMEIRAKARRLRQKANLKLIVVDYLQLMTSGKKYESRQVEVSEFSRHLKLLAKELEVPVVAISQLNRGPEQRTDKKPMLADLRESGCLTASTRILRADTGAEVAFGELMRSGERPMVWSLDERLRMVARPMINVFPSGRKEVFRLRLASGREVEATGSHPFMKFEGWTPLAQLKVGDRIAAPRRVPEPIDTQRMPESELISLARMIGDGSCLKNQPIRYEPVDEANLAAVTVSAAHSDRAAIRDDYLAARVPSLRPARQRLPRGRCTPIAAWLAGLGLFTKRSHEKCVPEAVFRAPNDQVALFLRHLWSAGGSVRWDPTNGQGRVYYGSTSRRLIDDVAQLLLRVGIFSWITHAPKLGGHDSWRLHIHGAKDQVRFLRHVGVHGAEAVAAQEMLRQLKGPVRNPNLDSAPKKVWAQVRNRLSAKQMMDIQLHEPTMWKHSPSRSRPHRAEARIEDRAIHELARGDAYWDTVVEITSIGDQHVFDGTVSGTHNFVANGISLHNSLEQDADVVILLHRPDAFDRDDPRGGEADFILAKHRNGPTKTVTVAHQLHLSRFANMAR

Protein RecA = target: T4, Protein RecA (Mycobacterium tuberculosis, UniProt P9WHJ3); assay: Fluorescence Cell-Free Homogeneous Dose Retest to Identify Inhibitors of RecA-Intein Splicing Activity. [Related pubchem assays (depositor defined):AID2097, AID2223, AID489010, AID492950]; type: functional
T4 sequence (P9WHJ3 whole entry): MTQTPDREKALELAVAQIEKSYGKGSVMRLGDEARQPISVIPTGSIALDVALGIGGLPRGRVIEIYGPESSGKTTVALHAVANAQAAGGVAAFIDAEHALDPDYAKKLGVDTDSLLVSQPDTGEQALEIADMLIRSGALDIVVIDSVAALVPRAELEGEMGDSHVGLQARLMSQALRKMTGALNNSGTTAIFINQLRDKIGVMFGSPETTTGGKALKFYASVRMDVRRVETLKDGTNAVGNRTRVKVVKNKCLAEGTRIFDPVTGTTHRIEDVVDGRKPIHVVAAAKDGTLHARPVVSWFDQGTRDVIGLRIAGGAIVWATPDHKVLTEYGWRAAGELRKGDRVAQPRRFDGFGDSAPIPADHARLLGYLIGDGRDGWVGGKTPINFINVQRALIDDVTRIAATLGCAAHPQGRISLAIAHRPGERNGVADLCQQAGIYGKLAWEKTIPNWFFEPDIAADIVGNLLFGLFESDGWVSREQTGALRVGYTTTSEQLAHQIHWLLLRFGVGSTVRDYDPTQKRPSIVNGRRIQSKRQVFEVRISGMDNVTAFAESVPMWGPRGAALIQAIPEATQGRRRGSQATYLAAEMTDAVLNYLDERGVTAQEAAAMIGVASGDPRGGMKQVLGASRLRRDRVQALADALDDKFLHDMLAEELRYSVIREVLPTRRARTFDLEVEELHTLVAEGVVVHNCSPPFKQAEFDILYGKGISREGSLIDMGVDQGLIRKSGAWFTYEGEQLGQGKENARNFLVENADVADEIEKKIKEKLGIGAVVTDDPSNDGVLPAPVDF

Cytochrome P450 2C19 = Cytochrome P450 2C19 (Homo sapiens, UniProt P33261); assay: Cytochrome panel assay with activity outcomes. Panel member name: p450-cyp2c19 Compounds with AC50 equal or less than 10 uM are considered active; type: functional; conditions: read-out: AC50
Sequence of Cytochrome P450 2C19 (P33261 whole entry): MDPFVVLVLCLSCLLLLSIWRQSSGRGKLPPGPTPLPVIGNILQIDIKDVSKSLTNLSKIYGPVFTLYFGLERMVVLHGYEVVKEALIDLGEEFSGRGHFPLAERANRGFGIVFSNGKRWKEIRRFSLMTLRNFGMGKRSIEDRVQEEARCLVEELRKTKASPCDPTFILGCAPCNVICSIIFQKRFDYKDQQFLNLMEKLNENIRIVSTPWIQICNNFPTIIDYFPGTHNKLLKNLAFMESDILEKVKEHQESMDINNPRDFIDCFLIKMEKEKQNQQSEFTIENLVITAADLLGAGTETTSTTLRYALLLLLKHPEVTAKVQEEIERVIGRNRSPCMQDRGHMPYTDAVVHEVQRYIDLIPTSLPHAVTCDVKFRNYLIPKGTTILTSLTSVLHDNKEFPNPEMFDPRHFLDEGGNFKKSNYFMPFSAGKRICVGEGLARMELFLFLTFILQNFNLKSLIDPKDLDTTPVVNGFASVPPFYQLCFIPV

O=C(CN(c1cccc(C(F)(F)F)c1)S(=O)(=O)c1ccc(Cl)c([N+](=O)[O-])c1)NCc1ccccc1Cl
CC50 [1]: > 50 µM (active)
AC50 [2]: 1.72 µM (active)

COc1ccc(NC(=O)CSc2nc3ccccc3cc2Cc2ccccc2)cc1
AC50 (Cytochrome P450 2D6): 0.2 µM (inconclusive)
AC50 (Cytochrome P450 2C9): 1.26 µM (inconclusive)

COc1ccc(-c2cc(C(F)F)nc(-n3nc(C)cc3C)n2)cc1
AC50 (Cytochrome P450 2D6): 22.4 µM (inconclusive)

CCc1ccc(N(CC(=O)Nc2nc3ccc(C)cc3s2)S(=O)(=O)c2c(C)noc2C)cc1
AC50 [2]: 3.45 µM (active)

CCN(CC)S(=O)(=O)c1cccc(NC(=O)c2cc3ccccc3o2)c1
CC50 [1]: 10.9 µM (active)

CCNc1ncc2nc(-c3ccc(F)cc3)c(=O)n(C[C@H]3CCCO3)c2n1
AC50 (Cytochrome P450 2D6): 0.631 µM (inconclusive)

Oc1ccc(Cl)cc1/C=N\c1cnc2ccccc2c1
AC50 (Cytochrome P450 2D6): 5.01 µM (inconclusive)

CCN(c1ccccc1)S(=O)(=O)c1ccc(NC(=S)NC(=O)c2ccc(Br)o2)cc1
AC50 (Cytochrome P450 2D6): 3.16 µM (inconclusive)

Cc1csc(SCC(=O)c2c(N)n(C)c(=O)n(C)c2=O)n1
EC50 [3]: 2.14 µM (active)
EC50 [4]: 29.5 µM (active)
EC50 (H4): > 120 µM (not active)

CC(C)(C)c1ccc(-c2noc(-c3ccc4c(c3)CCO4)n2)cc1
EC50 [3]: 0.493 µM (active)
EC50 [4]: 2.25 µM (active)
EC50 [5]: 5.26 µM (active)
EC50 (H4): 0.553 µM (active)
EC50 (Streptokinase A): 46 µM (active)
EC50 (Streptococcus): > 150 µM (not active)

CN1CCN(c2ncncc2-c2ccccc2C(F)(F)F)CC1
AC50 (Cytochrome P450 2D6): 20 µM (inconclusive)
AC50 (Cytochrome P450 1A2): 31.6 µM (inconclusive)
AC50 (Cytochrome P450 3A4): 3.98 µM (inconclusive)

Cc1ccc(-n2c([S-])c(C(=O)Nc3ccc(OC(F)F)cc3)[n+]3ccc(C(=O)NCCO)cc23)cc1C
EC50 [3]: 7.99 µM (active)
EC50 [4]: > 120 µM (not active)
EC50 (H4): 21.3 µM (active)

CCC(=O)O[C@@]1(C(=O)CCl)[C@@H](C)C[C@@H]2[C@H]3CCC4=CC(=O)C=C[C@@]4(C)[C@]3(F)[C@@H](O)C[C@@]21C
AC50 (Cytochrome P450 2D6): 10 µM (inconclusive)
AC50 (Cytochrome P450 2C9): 15.8 µM (inconclusive)

Cc1c(C(=O)N(CCc2ccccc2)Cc2ccccc2)cccc1[N+](=O)[O-]
CC50 [1]: 25.5 µM (active)

CCC(C)(C)NC(=O)CSc1nc(Cc2ccccc2)nc2ccccc12
CC50 [1]: > 50 µM (active)

CCc1ccc(Nc2cnn(-c3nc4ccccc4s3)c(=O)c2Cl)cc1
CC50 [1]: 44.6 µM (active)

Cc1ccc(C)n1-c1ccc(C(=O)Nc2ccccc2F)cc1
EC50 [3]: 11.6 µM (active)
EC50 [4]: 43.1 µM (active)
EC50 (H4): 14.5 µM (active)

O=C(CCc1nc(-c2ccccc2)no1)NCCc1ccccc1
AC50 (Cytochrome P450 2D6): 39.8 µM (inconclusive)
AC50 (Cytochrome P450 2C9): 15.8 µM (inconclusive)

Cc1noc(C)c1C(=O)Nc1ccc(C#N)cc1
CC50 [1]: 23.4 µM (active)

Cc1ccc(-c2noc(CCC(=O)NCCCN3CCN(c4cccc(Cl)c4)CC3)n2)cc1
CC50 [1]: > 50 µM (active)

C[C@@H]1CC[C@]2(C(=O)O)CC[C@]3(C)C(=CCC4[C@]56CC[C@@](O)(OC5)C(C)(C)C6CC[C@]43C)C2[C@H]1C (stereo partly drawn)
AC50 [2]: 5.61 µM (active)

CCS(=O)(=O)Nc1ccc(-c2cc(-c3ccccc3)c3cc(C)ccc3n2)cc1
EC50 [5]: 7.31 µM (active)
EC50 (Streptokinase A): > 150 µM (not active)
EC50 [6]: 27.6 µM (active)
EC50 [7]: 24.1 µM (active)
EC50 (Streptococcus): 7.65 µM (active)
AC50 [2]: 3.42 µM (active)

O=C(Nc1ccccc1)Nc1ccc(O)c2ccccc12
AC50 [2]: 2.56 µM (active)
AC50 [8]: 9.08 µM (active)
EC50 (Protein RecA): 0.762 µM (active)

Cc1cc(O)nc(N/N=C/c2ccc(-c3ccc(F)cc3)o2)n1
AC50 [2]: 9.21 µM (active)

CSc1nncn1/N=C/c1ccc2c(c1)OCO2
AC50 (Cytochrome P450 2C19): 25.1 µM (inconclusive)
AC50 (Cytochrome P450 2D6): 22.4 µM (inconclusive)

Clc1cccc(Nc2nnc(-c3ccccc3)c3ccccc23)c1
AC50 (Cytochrome P450 2D6): 2 µM (inconclusive)
AC50 (Cytochrome P450 3A4): 7.94 µM (inconclusive)

O=C1c2cccc3c([N+](=O)[O-])ccc(c23)C(=O)N1CCc1ccccn1
CC50 [1]: 7.83 µM (active)

C=C1C[C@@H]2[C@H](CC[C@]3(C)C(=O)CC[C@@H]23)[C@@]2(C)C=CC(=O)C=C12 [EXEMESTANE]
EC50 [3]: 2.79 µM (active)
EC50 [4]: 6.44 µM (active)
EC50 (H4): 26.7 µM (active)

Cc1cc(C(C)(C)CC(C)(C)C)ccc1OCCOCC[N+](C)(C)Cc1ccccc1 [METHYLBENZETHONIUM]
AC50 (Cytochrome P450 2D6): 12.6 µM (inconclusive)
AC50 (Cytochrome P450 1A2): 12.6 µM (inconclusive)
